From ChEMBL document CHEMBL1145594, “Carbonic anhydrase inhibitors: design of spin-labeled sulfonamides incorporating TEMPO moieties as probes for cytosolic or transmembrane isozymes” (Bioorg Med Chem Lett, 2008)

The compounds below were run against Carbonic anhydrase 9 (Homo sapiens, UniProt Q16790).
Description: Inhibition of human cloned carbonic anhydrase 9 by CO2 hydration stopped-flow assay
`CC1(C)CC(NC(=S)NCc2ccc(S(N)(=O)=O)cc2)CC(C)(C)N1[O]` showed a Ki of 35 nM. In the case of `CC1(C)CC(NC(=S)Nc2ccc(S(=O)(=O)NCc3ccc(S(N)(=O)=O)cc3)cc2)CC(C)(C)N1[O]`, the Ki is reported as 7 nM. With `CC1(C)CC(NC(=S)Nc2ccc(S(N)(=O)=O)cc2Cl)CC(C)(C)N1[O]` the Ki was 14 nM. `CC1(C)CC(NC(=S)Nc2ccc(S(=O)(=O)Nc3ccc(S(N)(=O)=O)cc3)cc2)CC(C)(C)N1[O]` gave a Ki of 30 nM. With `CC1(C)CC(NC(=S)Nc2cccc(S(N)(=O)=O)c2)CC(C)(C)N1[O]` the Ki was 132 nM. With `CC1(C)CC(NC(=S)Nc2ccc(S(N)(=O)=O)cc2F)CC(C)(C)N1[O]` the Ki was 22 nM. For `CC1(C)CC(NC(=S)Nc2ccc(S(=O)(=O)NCCc3ccc(S(N)(=O)=O)cc3)cc2)CC(C)(C)N1[O]`, the Ki was 41 nM. Work on `CC1(C)CC(NC(=S)NCCc2ccc(S(N)(=O)=O)cc2)CC(C)(C)N1[O]` yielded a Ki of 39 nM. `CC1(C)CC(NC(=S)Nc2ccc(S(=O)(=O)Nc3cccc(S(N)(=O)=O)c3)cc2)CC(C)(C)N1[O]` was tested, and the Ki was 220 nM.
